In patent publication US20230382889A1 (Volastra Therapeutics, Inc., priority 2022, published 2023):
Where two headings read alike, the source gives them in different places. Each block holds one compound with its values, some of them ahead of it.

What was measured:
[1] = biological target: KIF18a-microtubule complex (Homo sapiens (Human), UniProt Q8NI77); experiment: Binding kinetics to KIF18a-microtubule complex (global progress curve analysis); details: for kon (on-rate from binding kinetics assay) / koff: KIF18A 0.25 nM, up to 24 hr; for koff: read-out: koff (off-rate from binding kinetics assay) (converted); for Ki: koff/kon, read-out: KI (determined from binding kinetic assay koff/kon)
Experimental: Compound binding kinetics parameters (kon and koff) were determined by the method of global progress curve analysis (GPCA). […] ADP product levels were determined by the Promega® ADP-Glo assay.

hKIF18A (1-374) = hKIF18A (1-374) (Homo sapiens (Human), UniProt Q8NI77); experiment: Inhibition of KIF18A microtubule-dependent ATPase activity (ADP-Glo); assay type: biochemical; details: 4 nM hKIF18A (1-374)
Procedure, shortened: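 Reaction was started with pre-formed microtubules and ATP (0.2 mg/mL and 2.0 mM in the added mix) and run 60 min at 28 °C. ADP was read by ADP-Glo luminescence, and IC50 came from a four-parameter fit of % inhibition.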

HCC15 cells = experiment: Cell viability of KIF18a-sensitive cell lines, HCC15 (Cell Titre-Glo, 7 days); assay type: cell-based; details: read-out: HCC15 IC50
Experimental: (§1) Cell lines were seeded as follows 24 hours before compound treatment: HCC15 (Korean Cell Line Bank) 600 cell/well, 95 μL of RPMI-1640 media supplemented with 100 units/mL penicillin, 100 units/mL streptomycin and 10% FBS; NIH:OVCAR-3 (ATCC), 1000 cell/well, 95 μL of RPMI-1640 media supplemented with 100 units/mL penicillin, 100 units/mL streptomycin, 0.01 mg/mL bovine insulin, and 20% FBS; JIMT-1 (Addexbio) 1000 cell/well, 95 μL of DMEM media supplemented with 100 units/mL penicillin, 100 units/mL streptomycin, and 10% FBS.
(§2) Test compounds were added to cells in a 20× dilution scheme by adding 5 μL of serially diluted compound to the plate, and the treated cells were incubated for an additional 7 days in a 37° C., 5% CO2 incubator. DMSO was used as the negative control (0% effect), and wells omitting cells were used as the positive control (100% effect). The cells were incubated for seven days, and cell viability determined via the Promega Cell Titre-Glo® Assay kit. Luminescence units were converted to ATP concentrations via an ATP standard curve (10 point, 2-fold dilution from 5 uM). % Inhibition was calculated for each well as: ([max−min]−[test−min])/[max−min]. IC50 values were calculated from concentration vs. % Inhibition data via a four-parameter variable slope model.

NIH:OVCAR-3 cells = experiment: Cell viability of KIF18a-sensitive cell lines, NIH:OVCAR-3 (Cell Titre-Glo, 7 days); assay type: cell-based; details: Homo sapiens, OVCAR-3, 168 h, read-out: NIH:OVCAR3 IC50
Experimental: as §1, §2

JIMT-1 cells = experiment: Cell viability of KIF18a-sensitive cell lines, JIMT-1 (Cell Titre-Glo, 7 days); assay type: cell-based; details: Homo sapiens, read-out: JIMT-1 IC50
Experimental: as §1, §2

Chain of hKIF18A (1-374) (Q8NI77 1-374): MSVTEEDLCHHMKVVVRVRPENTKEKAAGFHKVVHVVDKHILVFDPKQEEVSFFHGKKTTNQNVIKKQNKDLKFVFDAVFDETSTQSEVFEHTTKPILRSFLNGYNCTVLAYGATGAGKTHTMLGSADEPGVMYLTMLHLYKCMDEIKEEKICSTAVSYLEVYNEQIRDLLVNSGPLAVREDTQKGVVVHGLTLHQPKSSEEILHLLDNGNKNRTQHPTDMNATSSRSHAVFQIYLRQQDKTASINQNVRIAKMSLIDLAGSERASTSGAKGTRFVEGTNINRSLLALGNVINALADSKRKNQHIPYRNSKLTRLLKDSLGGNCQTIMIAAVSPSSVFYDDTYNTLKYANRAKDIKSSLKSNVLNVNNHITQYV
Chain of KIF18a-microtubule complex (Q8NI77 1-374, one chain of several): as the sequence (Q8NI77 1-374) above

Structure (SMILES): CS(=O)(=O)Nc1ccc(-c2nnc(-c3cccc(N4CCC(F)(F)CC4)n3)[nH]2)c(N2CCC3(CC2)CC3)c1 [Compound 5, N-(4-(5-(6-(4,4-difluoropiperidin-1-yl)pyridin-2-yl)-1H-1,2,4-triazol-3-yl)-3-(6-azaspiro[2.5]octan-6-yl)phenyl)methanesulfonamide]
kon (on-rate from binding kinetics assay) [1]: 16900 M⁻¹ s⁻¹
koff [1]: 2.53e-05 s⁻¹
Ki [1]: 1.5 nM
disc. t1/2 (dissociation half-life ln(2)/koff) [1]: 7.6 h
IC50 (hKIF18A (1-374)): 6.6 nM

Structure (SMILES): Cc1cc(NC(=O)c2ccc(NS(=O)(=O)CCO)cc2N2CCC3(CC2)CC3)nc(N2CCC(F)(F)CC2)n1 [AMG650, 2-(6-azaspiro[2.5]octan-6-yl)-N-[2-(4,4-difluoropiperidin-1-yl)-6-methylpyrimidin-4-yl]-4-(2-hydroxyethanesulfonamido)benzamide, reference compound]
IC50 (HCC15 cells; HCC15, 168 h): 66 nM
IC50 (NIH:OVCAR-3 cells): 100 nM
IC50 (JIMT-1 cells; JIMT-1, 168 h): 130 nM

Structure (SMILES): Cc1cc(-c2cn(-c3ccc(NS(=O)(=O)CCO)cc3N3CCCCC3)nn2)nc(N2CC(F)(F)C2)c1 [Compound 70, N-(4-(4-(6-(3,3-difluoroazetidin-1-yl)-4-methylpyridin-2-yl)-1H-1,2,3-triazol-1-yl)-3-(piperidin-1-yl)phenyl)-2-hydroxyethane-1-sulfonamide]
kon (on-rate from binding kinetics assay) [1]: 2500 M⁻¹ s⁻¹
koff [1]: 3.61e-05 s⁻¹
Ki [1]: 15 nM
disc. t1/2 (dissociation half-life ln(2)/koff) [1]: 5.4 h
IC50 (hKIF18A (1-374)): 27 nM

Structure (SMILES): O=S(=O)(CCO)Nc1ccc(-c2cn(-c3ccc(F)c(N4CCC(F)(F)CC4)n3)nn2)c(N2CCC3(CC2)CC3)c1 [Compound 140, N-(4-(1-(6-(4,4-difluoropiperidin-1-yl)-5-fluoropyridin-2-yl)-1H-1,2,3-triazol-4-yl)-3-(6-azaspiro[2.5]octan-6-yl)phenyl)-2-hydroxyethane-1-sulfonamide]
IC50 (hKIF18A (1-374)): 18 nM

Structure (SMILES): Cc1cc(-n2cc(-c3ccc(NS(=O)(=O)CCO)cc3N3CCC4(CC3)CC4)nn2)cc(N2CCC(F)(F)CC2)n1 [Compound 114]
IC50 (hKIF18A (1-374)): 58 nM

Structure (SMILES): O=S(=O)(CCO)Nc1ccc(-n2cc(-c3ccc(C(O)C4CCCC4)o3)nn2)c(N2CCC3(CC2)CC3)c1 (stereo not drawn) [Compound 51, N-(4-(4-(5-(cyclopentyl(hydroxy)methyl)furan-2-yl)-1H-1,2,3-triazol-1-yl)-3-(6-azaspiro[2.5]octan-6-yl)phenyl)-2-hydroxyethane-1-sulfonamide]
IC50 (hKIF18A (1-374)): 2.8 nM

Structure (SMILES): CS(=O)(=O)Nc1ccc(-c2ncc(-c3cccc(N4CC5C(C4)C5(F)F)n3)[nH]2)c(N2CCC3(CC2)CC3)c1 (stereo not drawn) [Compound 30, N-(4-(5-(6-(6,6-difluoro-3-azabicyclo[3.1.0]hexan-3-yl)pyridin-2-yl)-1H-imidazol-2-yl)-3-(6-azaspiro[2.5]octan-6-yl)phenyl)methanesulfonamide]
IC50 (hKIF18A (1-374)): 21 nM

Structure (SMILES): c1cc(-c2nnc(-c3cccnc3N3CCC4(CC3)CC4)[nH]2)nc(N2CCOCC2)c1 [Compound 4, 4-(6-(5-(2-(6-azaspiro[2.5]octan-6-yl)pyridin-3-yl)-4H-1,2,4-triazol-3-yl)pyridin-2-yl)morpholine]
IC50 (hKIF18A (1-374)): 5600 nM

Structure (SMILES): Cc1cc(-c2cn(-c3ccc(NS(=O)(=O)CCO)cc3N3CCC4(CC3)CC4)nn2)nc(CN2CC(F)(F)C2)n1 [Compound 152, N-(4-(4-(2-((3,3-difluoroazetidin-1-yl)methyl)-6-methylpyrimidin-4-yl)-1H-1,2,3-triazol-1-yl)-3-(6-azaspiro[2.5]octan-6-yl)phenyl)-2-hydroxyethane-1-sulfonamide]
IC50 (hKIF18A (1-374)): 14 nM

Structure (SMILES): O=S(=O)(CCO)Nc1ccc(-c2nnc(-c3cccc(N4CCC(F)(F)CC4)n3)[nH]2)c(N2CCC3(CC2)CC3)c1 [Compound 8, N-(4-(5-(6-(4,4-difluoropiperidin-1-yl)pyridin-2-yl)-4H-1,2,4-triazol-3-yl)-3-(6-azaspiro[2.5]octan-6-yl)phenyl)-2-hydroxyethane-1-sulfonamide]
IC50 (hKIF18A (1-374)): 5.1 nM

Structure (SMILES): O=S(=O)(CCO)Nc1ccc(-n2cc(-c3ccc(C(O)C4CCCC4)o3)nn2)c(N2CCC3(CC2)CC3)c1 (single isomer, unassigned) [Compound 51a]
IC50 (hKIF18A (1-374)): 2.4 nM

Structure (SMILES): CS(=O)(=O)Nc1ccc(-c2ncc(-c3cccc(NC4CC(F)(F)C4)n3)[nH]2)c(N2CCC3(CC2)CC3)c1 [Compound 32, N-(4-(5-(6-((3,3-difluorocyclobutyl)amino)pyridin-2-yl)-1H-imidazol-2-yl)-3-(6-azaspiro[2.5]octan-6-yl)phenyl)methanesulfonamide]
IC50 (hKIF18A (1-374)): 140 nM

Structure (SMILES): Cc1cc(-c2cn(-c3ccc(NS(=O)(=O)CCO)cc3N3CCCCC3)nn2)nc(N2CC3C(C2)C3(F)F)n1 (stereo not drawn) [Compound 74, N-(4-(4-(2-(6,6-difluoro-3-azabicyclo[3.1.0]hexan-3-yl)-6-methylpyrimidin-4-yl)-1H-1,2,3-triazol-1-yl)-3-(piperidin-1-yl)phenyl)-2-hydroxyethane-1-sulfonamide]
IC50 (hKIF18A (1-374)): 18 nM

Second part, led by results:

IC50 (HCC15 cells; 168 h, HCC15, 7 days): 16 nM
IC50 (NIH:OVCAR-3 cells; NIH:OVCAR3, 7 days): 25 nM
Structure (SMILES): Cc1cc(-c2cn(-c3ccc(NS(=O)(=O)CCO)cc3N3CCC4(CC3)CC4)nn2)nc(N2CCC(F)(F)CC2)c1 [Compound 72, N-(4-(4-(6-(4,4-difluoropiperidin-1-yl)-4-methylpyridin-2-yl)-1H-1,2,3-triazol-1-yl)-3-(6-azaspiro[2.5]octan-6-yl)phenyl)-2-hydroxyethane-1-sulfonamide]
IC50 (JIMT-1 cells; 168 h, JIMT-1, 7 days): 24 nM

kon (on-rate from binding kinetics assay) [1]: 3890 M⁻¹ s⁻¹
koff [1]: 3.61e-05 s⁻¹
Ki [1]: 8.9 nM
disc. t1/2 (dissociation half-life ln(2)/koff) [1]: 5.5 h
IC50 (HCC15 cells; 168 h, HCC15, 7 days): 130 nM
IC50 (hKIF18A (1-374)): 14 nM
Structure (SMILES): CS(=O)(=O)Nc1ccc(-c2nnc(-c3cccc(N4CCOCC4)n3)[nH]2)c(N2CCC3(CC2)CC3)c1 [Compound 2, N-(4-(5-(6-morpholinopyridin-2-yl)-4H-1,2,4-triazol-3-yl)-3-(6-azaspiro[2.5]octan-6-yl)phenyl)methanesulfonamide]
IC50 (JIMT-1 cells; 168 h, JIMT-1, 7 days): 480 nM

IC50 (hKIF18A (1-374)): 150 nM
Structure (SMILES): CS(=O)(=O)Nc1ccc(-n2cc(-c3nc(N4CCC(F)(F)CC4)ns3)nn2)c(N2CCC3(CC2)CC3)c1 [Compound 135, N-(4-(4-(3-(4,4-difluoropiperidin-1-yl)-1,2,4-thiadiazol-5-yl)-1H-1,2,3-triazol-1-yl)-3-(6-azaspiro[2.5]octan-6-yl)phenyl)methanesulfonamide]

IC50 (hKIF18A (1-374)): 1.6 nM
Structure (SMILES): CS(=O)(=O)Nc1cc(N2CCC3(CC2)CC3)c(-n2cc(-c3cccc(N4CCC(F)(F)CC4)n3)nn2)cn1 [Compound 59, N-(5-(4-(6-(4,4-difluoropiperidin-1-yl)pyridin-2-yl)-1H-1,2,3-triazol-1-yl)-4-(6-azaspiro[2.5]octan-6-yl)pyridin-2-yl)methanesulfonamide]

IC50 (hKIF18A (1-374)): 4.4 nM
Structure (SMILES): CCS(=O)(=O)Nc1ccc(-n2cc(-c3c[n+]([O-])cc(N4CCC(F)(F)CC4)n3)nn2)c(N2CCC3(CC2)CC3)c1 [Compound 146, 3-(4,4-difluoropiperidin-1-yl)-5-(1-(4-(ethylsulfonamido)-2-(6-azaspiro[2.5]octan-6-yl)phenyl)-1H-1,2,3-triazol-4-yl)pyrazine 1-oxide]

IC50 (hKIF18A (1-374)): 14 nM
Structure (SMILES): CS(=O)(=O)Nc1ccc(-n2cc(-c3cccc(N4CCC(F)(F)CC4)n3)nn2)c(N2CCC(C(F)F)CC2)c1 [Compound 19, N-(3-(4-(difluoromethyl)piperidin-1-yl)-4-(4-(6-(4,4-difluoropiperidin-1-yl)pyridin-2-yl)-1H-1,2,3-triazol-1-yl)phenyl)methanesulfonamide]

IC50 (hKIF18A (1-374)): 32 nM
Structure (SMILES): Cc1cc(-c2cn(-c3ccc(NS(C)(=O)=O)cc3N3CCC4(CC3)CC4)nn2)nc(N2CCC(F)(F)CC2)n1 [Compound 21, N-(4-(4-(2-(4,4-difluoropiperidin-1-yl)-6-methylpyrimidin-4-yl)-1H-1,2,3-triazol-1-yl)-3-(6-azaspiro[2.5]octan-6-yl)phenyl)methanesulfonamide]

IC50 (hKIF18A (1-374)): 8.3 nM
Structure (SMILES): CS(=O)(=O)Nc1ccc(-n2cc(-c3cccc(N4CCOCC4)n3)nn2)c(N2CCC3(CC2)CC3)c1 [Compound 54, N-(4-(4-(6-morpholinopyridin-2-yl)-1H-1,2,3-triazol-1-yl)-3-(6-azaspiro[2.5]octan-6-yl)phenyl)methanesulfonamide]
